In patent publication US20240262856A1, “NOVEL SPINOSYN COMPOUNDS” (priority 2021, published 2024):
Values after ≈ are worked out from the molar mass of the structure shown. Read-outs that look alike come from different tables or passages of the source.

Assays:
[1] = system: Ostrinia nubilalis larvae; assay: Insecticide efficacy on corn leaves dipped in compound solution and infested with L1 larvae (Henderson-Tilton method); type: in vivo; details: for % Efficacy 3 days: 3 days post infestation; for % Efficacy 6 days: 6 days post infestation; for Emax: Ostrinia nubilalis; for insecticidal activity on Ostrinia nubilalis larvae (in words): compared with Spinosad / spinetoram
Description: Insecticide activities of the compounds of this invention were assessed in comparison with commercially available samples of spinosad (LGC (Dr. Ehrenstorfer); Product code: DRE-C16972830) and spinetoram (LGC (Dr. Ehrenstorfer); Product code: DRE-C16972770) Solutions of spinosyn compounds were prepared by adding 0.05% Tween 80, lowering pH to 5.95 and sonicating. Two concentrations of each compound were used, 0.1 μg/mL and 0.3 μg/mL, with each condition tested in four parallels.
Freshly collected corn leaves were dipped into the prepared solutions. After dipping leaves were left to dry at room temperature for 1 hour. Each dry leaf was then infested with 4 larvae (development stage L1), and the experimental device was incubated at 21° C.-23° C. for 24 h in order to optimize insect development. At two timings post infestation (3 days and 6 days), the insecticide efficacy is evaluated from the number of living larvae using the Henderson-Tilton method. Untreated control was integrated for normalization and validation of larvae health.

[2] = system: honey bees (Apis melifera carnica, Pollman 1879); assay: Single dose acute oral toxicity test on adult worker honey bees; type: in vivo
Description: Toxicity of the compounds of this invention towards honey bees (Apis melifera carnica, Pollman 1879) was assessed in comparison with commercially available samples of spinosad (LGC (Dr. Ehrenstorfer); Product code: DRE-C16972830) and the naturally produced compound butenyl spinosyn alpha 1. Solutions of spinosyn compounds were prepared in 100 mM ammonium acetate, pH=5, and later diluted in 50% (500 g/L) sucrose solution in water to final concentrations. Two final concentrations were used for each compound, 7.76 μmol/L and 15.53 μmol/L.
Single dose acute oral toxicity tests were conducted on adult worker bees according to previously described standard methods (Medrzycki at el., (2013)). Each compound and condition were tested in two parallels. Briefly, each parallel experiment consisted of 5 cages with 20 honey bees per cage. […] After uptake of the solutions honey bees were supplied with standard 50% sucrose solution and observed at 24 h and 48 h and the number of dead and live bees was estimated. Ammonium acetate solution with pH 5 was used as the negative control.

[3] = Kinetic solubility assay; type: physicochemical; details: 24 hours at room temperature (25±2° C.)
Description: Solubility of the compounds of the invention was assessed using kinetic solubility assay and compared to solubility of butenyl spinosyn. Stock solutions of spinosyn compounds were prepared in DMSO at 10 mM concentration). 10 uL of the stock solutions were added into 490 of in K.S. 5.4 buffer of pH 5.4 (80 mM phosphoric acid, acetic acid, boric acid buffer, adjusted the pH to pH 5.4 with 1 N HCl and 1N NaOH) or K.S. 7.4 buffer with pH of 7.4 (80 mM phosphoric acid, acetic acid, boric acid buffer, adjusted the pH to pH 7.4 with 1 N HCl and 1N NaOH). The solutions were incubated with shaking at room temperature (25±2° C.) for 24 hours. 200 uL of each solution were then transferred into a new MultiScreen filter plate (Membrane of polycarbonate) and filtered by millipore vacuum manifold, and the filtrate was collected. The concentrations of tested compounds in the filtered samples were analyzed by HPLC analysis calibrated by a standard curve generated by injection of 3 standard solutions of the relevant compound with concentrations of 1, 20, 200 μM.

[4] = UV-stability of 5 mM solutions in acetonitrile, remaining compound by HPLC; type: physicochemical; details: for share of remaining compound 0 h: start value for both aliquots; for Purity changing: 0 h to 10 h
Description: Synthesized spinosyn compounds were used to prepare 5 mM solutions in acetonitrile. The solution was divided in 2 aliquots and one aliquot was exposed to UV light at 254 nm and the other aliquot was incubated in the same conditions without UV light exposure. Quantities of remaining starting compounds were determined by HPLC after 0 h, 1 h, 5 h and 10 h.

[5] = system: honey bees (Apis melifera carnica, Pollman 1879); details: previously established oral LD50 for honey bee; cited from earlier work
[6] = 0.078 nmol/bee oral single dose, 24 h after application
[7] = 0.078 nmol/bee oral single dose, 48 h after application
[8] = 0.155 nmol/bee oral single dose, 24 h after application
[9] = 0.155 nmol/bee oral single dose, 48 h after application
[10] = 72 h, read-out: % Efficacy 3 days, dose 0.1 μg a.i./ml, 3 days post infestation
[11] = 72 h, read-out: % Efficacy 3 days, dose 0.3 μg a.i./ml, 3 days post infestation
[12] = 144 h, read-out: % Efficacy 6 days, dose 0.1 μg a.i./ml, 6 days post infestation
[13] = 144 h, read-out: % Efficacy 6 days, dose 0.3 μg a.i./ml, 6 days post infestation
[14] = 25 °C, aqueous buffer, kinetic from dmso stock, K.S. 5.4 buffer pH 5.4, dose conc 200 μM, read-out: Kinetic Solubility pH = 5.4
[15] = 25 °C, aqueous buffer, kinetic from dmso stock, K.S. 7.4 buffer pH 7.4, dose conc 200 μM, read-out: Kinetic Solubility pH = 7.4

Molecule	% Efficacy 3 days ([1]; dose 0.1 μg a.i./ml) [%]	% Efficacy 6 days ([1]; dose 0.1 μg a.i./ml) [%]	% Efficacy 3 days ([1]; dose 0.3 μg a.i./ml) [%]	% Efficacy 6 days ([1]; dose 0.3 μg a.i./ml) [%]	% of surviving honey bees [2, 6] [%]	% of surviving honey bees [2, 7] [%]	% of surviving honey bees [2, 8] [%]	% of surviving honey bees [2, 9] [%]	share of remaining compound 0 h [4] [%]	Purity changing ([4]; under UV light at 254 nm) [%]	share of remaining compound 1 h ([4]; under UV light at 254 nm) [%]	share of remaining compound 5 h ([4]; under UV light at 254 nm) [%]	share of remaining compound 10 h ([4]; under UV light at 254 nm) [%]	Purity changing ([4]; without UV)	share of remaining compound 1 h ([4]; without UV) [%]	share of remaining compound 5 h ([4]; without UV) [%]	share of remaining compound 10 h ([4]; without UV) [%]	solubility kinetic at 24 h [3, 14] [µM]	solubility kinetic at 24 h [3, 15] [µM]	further results
CCC=CC1CCCC(OC2CCC(N(C)C)C(C)O2)C(C)C(=O)C2=CC3C(C=CC4CC(OC5OC(C)C(OC)C(OC)C5OC)CC43)C2CC(=O)O1 (stereo not drawn) [Butenyl spinosyn, butenyl spinosyn α1, reference compound]	33	56	79	100	57	37	32	6	90.0	−30.4	88.6	70.9	59.6	−0.6%	90.6	90.7	89.4			toxicity to honey bees in acute oral toxicity test (in words) ([2]; compared to the derivatives provided by this invention): higher toxicity to honey bees; solubility kinetic at 24 h ([3]; K.S. 5.4 buffer pH 5.4, dose conc 200 μM, read-out: Kinetic Solubility pH = 5.4): 183.17 µM (≈ 139 µg/mL); solubility kinetic at 24 h ([3]; K.S. 7.4 buffer pH 7.4, dose conc 200 μM, read-out: Kinetic Solubility pH = 7.4): 3.52 µM (≈ 2.67 µg/mL)
CC/C=C/[C@H]1CCC[C@H](OC2CCC(N(C)C)C(C)O2)[C@@H](C)C(=O)C2=C[C@@H]3[C@@H](C=C[C@]4(O)C[C@@H](OC5OC(C)C(OC)C(OC)C5OC)C[C@@H]34)[C@@H]2CC(=O)O1 (stereo partly drawn) [Compound A1, 7-hydroxy butenyl spinosyn α1]									90.7	−38.5	86.6	71.3	52.2	+0.2%	90.7	90.8	90.9	192 (≈ 149 µg/mL)	187 (≈ 144 µg/mL)	Emax [1, 10]: 2%; Emax [1, 11]: 15%; Emax [1, 12]: 2%; Emax [1, 13]: 19%
CC/C=C/[C@H]1CCC[C@H](OC2CCC(N(C)C)C(C)O2)[C@@H](C)C(=O)C2=C[C@@H]3[C@@H](C=C[C@]4(OC)C[C@@H](OC5OC(C)C(OC)C(OC)C5OC)C[C@@H]34)[C@@H]2CC(=O)O1 (stereo partly drawn) [Compound H1, 7-methoxy butenyl spinosyn α1]									96.0	−22.5	95.6	87.5	73.5	+0.7%	96.5	96.9	96.7	183 (≈ 144 µg/mL)	77.1 (≈ 60.8 µg/mL)	Emax [1, 10]: 27%; Emax [1, 11]: 58%; Emax [1, 12]: 89%; Emax [1, 13]: 100%; insecticidal activity on Ostrinia nubilalis larvae (in words) [1]: extremely potent insecticidal activity
CC[C@H]1CCC[C@H](OC2CCC(N(C)C)C(C)O2)[C@@H](C)C(=O)C2=C[C@@H]3[C@@H](C=C[C@]4(OC)C[C@@H](OC5OC(C)C(OC)C(OC)C5OC)C[C@@H]34)[C@@H]2CC(=O)O1 (stereo partly drawn) [Compound H1a]	15	41	64	93																insecticidal activity on Ostrinia nubilalis larvae (in words) [1]: lower insecticidal activity
CC/C=C/[C@H]1CCC[C@H](OC2CCC(N(C)C)C(C)O2)[C@@H](C)C(=O)C2=C[C@@H]3[C@@H](C=C[C@]4(OCC)C[C@@H](OC5OC(C)C(OC)C(OC)C5OC)C[C@@H]34)[C@@H]2CC(=O)O1 (stereo partly drawn) [Compound H2, 7-ethoxy butenyl spinosyn al]									93.2	−53.5	87.6	67.8	39.7	−0.9%	93.6	93.7	92.3	166 (≈ 133 µg/mL)	7.68 (≈ 6.16 µg/mL)	
CC/C=C/[C@H]1CCC[C@H](OC2CCC([N+](C)(C)COC(=O)C(C)(C)C)C(C)O2)[C@@H](C)C(=O)C2=C[C@@H]3[C@@H](C=CC4(OC)C[C@@H](OC5OC(C)C(OC)C(OC)C5OC)C[C@@H]34)[C@@H]2CC(=O)O1 (stereo partly drawn) [Compound J1A-H1]					98	73	86	26												
CC/C=C/[C@H]1CCC[C@H](OC2CCC([N+](C)(C)COC(=O)OC(C)C)C(C)O2)[C@@H](C)C(=O)C2=C[C@@H]3[C@@H](C=CC4(OC)C[C@@H](OC5OC(C)C(OC)C(OC)C5OC)C[C@@H]34)[C@@H]2CC(=O)O1 (stereo partly drawn) [Compound J7-H1]					87	69	78	30												
spinetoram [Spinoteram, reference compound]	58	81	85	96																
spinosad [SPN, reference compound]	25	46	63	100																LD50 [5]: 0.057 μg/bee
